# Laboratory results: ChEMBL document CHEMBL1151316, “Pyrrolizidine alkaloids from Heliotropium megalanthum” (J Nat Prod, 1998)
# Assays:
# [1] = tested on: Leptinotarsa decemlineata; experiment: Antifeedant activity in Leptinotarsa decemlineata assessed as reduction of feeding by choice test; format: functional, organism-based
# [2] = tested on: Leptinotarsa decemlineata; experiment: Antifeedant activity in Leptinotarsa decemlineata assessed as reduction of feeding by no-choice test; format: functional, organism-based
# [3] = tested on: Leptinotarsa decemlineata; experiment: Insecticidal activity against haemolymph dosed Leptinotarsa decemlineata assessed as increase in mortality after 2 days; format: functional
# [4] = tested on: Spodoptera littoralis; experiment: Antifeedant activity in Spodoptera littoralis L6 larvae assessed as reduction of feeding at 5 ug/cm2 by choice test; format: functional; design: scale not given: the % may be the effect or the level left
# [5] = tested on: Spodoptera littoralis; experiment: Insecticidal activity against orally dosed Spodoptera littoralis L6 larvae assessed as relative consumption rate after 72 hrs; format: functional
# [6] = tested on: Spodoptera littoralis; experiment: Insecticidal activity against orally dosed Spodoptera littoralis L6 larvae assessed as relative growth rate after 72 hrs; format: functional
# [7] = tested on: Leptinotarsa decemlineata; experiment: Antifeedant activity in Leptinotarsa decemlineata assessed as reduction of feeding at 100 ug/cm2 by choice test; format: functional; design: scale not given: the % may be the effect or the level left
# [8] = tested on: Spodoptera littoralis; experiment: Antifeedant activity in Spodoptera littoralis L6 larvae assessed as reduction of feeding by choice test; format: functional, organism-based
# [9] = tested on: Spodoptera littoralis; experiment: Antifeedant activity in Spodoptera littoralis L6 larvae assessed as reduction of feeding at 100 ug/cm2 by choice test; format: functional; design: scale not given: the % may be the effect or the level left
# [10] = tested on: Leptinotarsa decemlineata; experiment: Antifeedant activity in Leptinotarsa decemlineata assessed as reduction of feeding at 100 ug/cm2 by no-choice test; format: functional; design: scale not given: the % may be the effect or the level left
structure (smiles),measurement,setting,value
CC(=O)O[C@H](C)[C@](O)(C(=O)OC[C@@H]1CCN2CCC[C@@H]12)C(C)C,EC50,[1],1.79 microg/cm2
same,EC50,[2],2.92 microg/cm2
same,Activity,[3],5%
CO[C@@H](C)[C@](O)(C(=O)OCC1=CCN2CC[C@H](O)[C@@H]12)C(C)(C)O [EUROPINE],Activity,[4],67%
CC(C)[C@](O)(C(=O)OCC1=CCN2CC[C@@H](O)[C@@H]12)[C@@H](C)O [LYCOPSAMINE],Activity,[5],21.19 mg
same,Activity,[6],3.32 mg
same,Activity,[7],27.53%
same,EC50,[8],31.62 microg/cm2
same,Activity,[9],61.08%
same,EC50,[2],25.97 microg/cm2
same,Activity,[3],12%
same,Activity,[10],68.4%
CC(C)[C@@](O)(C(=O)OC[C@H]1CCN2CC[C@@H](O)[C@@H]12)[C@H](C)O [MEGALANTHONINE],Activity,[3],10%
